From a melting point compilation (Tetko et al.; mined from patent text by program, amines drawn as free bases though some values may be those of a salt)

SMILES	melting point
CC(C)(O)C(=O)c1ccc(OCC(=O)O)cc1	131 to 134 °C
Cn1cc(C(=O)O)c([N+](=O)[O-])n1	185 to 187 °C
CC(C)c1nc(CO)n(Cc2cnc3ccccc3c2)c1Sc1cc(Cl)cc(Cl)c1	167 to 170 °C
NC(=O)N(O)[C@@H]1COc2cc(OCc3ccccc3)ccc21	192 to 193 °C
CN(O)C(=O)NCCCCCCCOCc1ccccc1	69 to 70.5 °C
Cc1nc2sccn2c(=O)c1O	225 to 227 °C
N#Cc1c(Cl)c[nH]c1-c1ccc(Cl)cc1	251 to 254 °C
OCCOCCN1CCN(C2=Nc3ccccc3Sc3ccccc32)CC1	172 to 173 °C
Cc1nc2cccc(OCC(C)(C)NC(=O)CC3CCOCC3)c2c(N)c1C(=O)O	175 to 178 °C
Cc1ccc(C(=S)c2cc(F)cc3c2NC(=O)C3)cc1	168 to 174 °C
Nc1cc(Cl)nc(SC/C=C/C(=O)N2CCOCC2)n1	154 to 157 °C
CC(C)C(=C(c1ccccc1)c1ccccc1)P(C1CCCCC1)C1CCCCC1	162 to 163 °C
CCOC(=S)NCCN1CCC(Nc2nc3ccccc3n2Cc2ccc(F)cc2)CC1	149 °C
Oc1ccc(-c2ncn(CC(O)(Cn3cncn3)c3ccc(F)cc3F)n2)cc1 (centres undefined)	120 to 127 °C
COC(=O)/C=C/c1ccc(CC(C)NCC(O)c2cccc(F)c2)cc1 (centres undefined)	75 to 110 °C
CC(C)c1cc(C(=O)Nc2ccc(CCC(=O)O)cc2)oc1C(C)C	139 to 141 °C
CCN(CC)CC1CCCCN1CC(=O)N1c2ccc(C)cc2C(=O)Nc2cccnc21 (centres undefined)	173 to 174 °C
Cc1cc(C(=O)NCO)ncc1C(c1c(F)ccc(F)c1F)S(=O)(=O)c1ccc(Cl)cc1 (centres undefined)	177 to 178 °C
C#Cc1cn(C2OC(CO)C(O)C2=C)c(=O)[nH]c1=O (centres undefined)	172 to 174 °C
Cc1cc(Oc2cccc(C(F)(F)F)c2)nc(C(=O)O)c1	75 to 77 °C
OCCC[C@H]1OC[C@H](c2ccc(Cl)c3ccccc32)CO1	127 to 129 °C
CCOC(=O)c1cn(-c2cc(N(C)C)c(F)cc2F)c2nc(Cl)c(F)cc2c1=O	158 to 163 °C
O=C(O)c1ccc(CNC(=O)C2Cc3ccccc3N2S(=O)(=O)c2ccc(-c3ccc(F)cc3F)cc2)cc1 (centres undefined)	115 °C
CCN(CC)c1cccc2nc3n(c12)CC(N)CCN3c1ccc(Cl)cc1Cl (centres undefined)	149 to 151 °C
Cc1c(C(=O)O)cccc1-c1cccs1	91.5 to 93 °C

SMILES	melting point
O=[N+]([O-])c1ccc(OCCCCl)cc1	37 to 39 °C
Cc1ccc2nc(-c3ccccc3F)cc(OCc3ccccc3)c2c1	91.5 to 92.8 °C
Cc1cc(CSCCNC(=C[N+](=O)[O-])NCCc2cccc(O)c2)sc1CN(C)C	114 to 115 °C
COc1ccc(Oc2ccc3ccc(NC(=O)c4ccc(OC)cc4)nc3n2)cc1	163 °C
CC(=O)NC[C@H]1CN(c2cc(F)c(N3CCC(n4nnc(N5CCN(C)CC5)n4)CC3)c(F)c2)C(=O)O1	184 to 188 °C
Cc1oc(-c2ccccc2)nc1COc1cccc(COc2cccc(CC(=O)O)c2)n1	97 to 98 °C
Cc1n[nH]c2cc(-c3ccc4nnn(Cc5ccc6ncccc6c5)c4n3)ccc12	136 to 137 °C
CN1CCC(=C2c3ccsc3C(O)Cn3ccnc32)CC1 (centres undefined)	230 °C
CCOC(=O)c1cn(-c2nc(NCc3ccc(OC)cc3)c(F)cc2F)c2c(F)c(F)c(F)c(NCc3ccccc3)c2c1=O	146 to 148 °C
CCCCc1oc2ccccc2c1C(=O)NCc1ccc2cc(OCC(=O)OC)ccc2c1	142 to 143 °C
CCN(CC)CCNC(=O)c1cccc2nc3cc(Br)ccc3nc12	107 to 109 °C
CC(C)C(C)(C#N)N1C(=O)c2cc3ccccc3nc2C1=O (centres undefined)	195 to 196 °C
CNC(=O)CC(C)(C)c1ccc(C(=O)Nc2cn3cc(Cl)ccc3n2)cc1	228 to 230 °C
O=C1C=C(O)CC(c2ccc3sccc3c2)C1 (centres undefined)	192 °C
COc1cc(O)ccc1-c1cnc2cnc(-c3ccc(O)cc3)nc2c1	207 to 208 °C
Cn1cc2c(n1)c(N)nc1ccccc12	218 to 219 °C
COC1CCC(=O)N1S(=O)(=O)C=Cc1ccccc1 (centres undefined)	98 to 99 °C
COc1ccc(N2CCN(c3c(C)c(C)c4c(c3C)C(c3ccc(-c5ccccc5)cc3)C(C)(C)O4)CC2)cc1 (centres undefined)	147 to 148 °C
CC(=O)C1=C(CS(=O)c2ccccc2)CC2C3CCC4=CC(=O)CCC4(C)C3=CCC12C (centres undefined)	160 to 163 °C
CC(C)C[C@H](NC(=O)[C@H](Cc1c[nH]cn1)NC(=O)[C@H](Cc1ccccc1)NC(=O)OCc1ccccc1)[C@H](O)CO	159 to 162 °C
CC(C)OCCCNC(=O)CN1C(=O)C2(COc3cc4c(cc32)CCO4)c2ccccc21 (centres undefined)	149 to 151 °C
COc1cccc(OC)c1CN1CC2CCCN2c2ncccc21 (centres undefined)	211 to 213 °C
NC(=S)C(c1ccccc1)c1cccnn1 (centres undefined)	161 to 163 °C
CCCCCc1ccc(C#Cc2c3ccccc3c3ccc4c(C#Cc5ccc(CCCCC)cc5)c5ccccc5c5ccc2c3c45)cc1	256 to 257 °C
O=C1OCCN1CCCn1ccnc1[N+](=O)[O-]	89 to 91 °C

SMILES	melting point
CCc1cccc2nc(C(=O)OC)c(C(=O)OC)c(O)c12	111 to 114 °C
Nc1cnccc1C(=O)Nc1ccc(-n2nc(C(F)(F)F)cc2C(F)(F)F)cc1	101 to 102 °C
O=P(O)(O)C(F)(F)P(=O)(O)O	87 to 90 °C
O=C(O)Cn1ncc2c(=O)n3c(nc21)SCC3	212 to 214 °C
COc1cc(-c2cc3ccccc3[nH]2)ccc1OS(=O)(=O)c1ccccc1	156 °C
COC(=N)N1CCC(c2nn(-c3ccccc3)c3ccccc23)CC1	80 to 83 °C
CCOCc1nc2c(N)nc3ccccc3c2n1CC1CC(C)=NO1 (centres undefined)	204 to 205 °C
CCCc1c(C(=O)C(C)C)c2ccc(C(=O)OC)cc2n1Cc1ccccc1C	99 to 102 °C
CCOc1cc2c(Nc3cc(OC)c(Cl)cc3Cl)c(C#N)cnc2cc1C#CCCO	220 to 222 °C
O=S(Cc1cc(OCc2ccc(C(F)(F)F)cc2)ccn1)c1nc2cscc2[nH]1 (centres undefined)	149 °C
C#CCn1cc(F)c(SC)nc1=O	101 to 102 °C
COc1ccc(CNc2cc(C(N)=O)c([N+](=O)[O-])cc2[N+](=O)[O-])cc1	201 to 203 °C
CN1CCN(c2cccc3c2C[C@H](NC(=O)c2ccc(N4CCOCC4)cc2)CO3)CC1	210 to 212 °C
CC=CCn1c(Nc2cc(C)cc(C)c2)c(C(C)C)c(=O)[nH]c1=O	186 to 187 °C
CC(=O)NCc1ccc2ccn(C3CCN(CCc4ccc(Cl)cc4)CC3)c2c1	148 to 149 °C
COC(=O)c1nccnc1Br	43 to 45 °C
CSc1sc(C2NCCO2)c2c1C(=O)CC(C)(C)C2 (centres undefined)	190 to 193 °C
N#Cc1ccc2ccc(=O)oc2c1	217 to 225 °C
CCOC(=O)Cc1cccc(Oc2ccccc2)c1NC(C)=O	106 to 107 °C
Cc1ccc2c(c1)C(=O)c1ccc(C(N)=O)cc1S2(=O)=O	305 °C
ClCc1cnc(Cl)cc1Cl	55 to 56 °C
COc1ccccc1-c1c(C#N)nn(-c2c(Cl)cc(C(F)(F)F)cc2Cl)c1N	193 °C
Cc1ccc(-c2c(C(=O)O)oc(=O)c3cnccc23)cc1	254 to 256 °C
O=CNCC(O)(Cn1cncn1)c1ccc(Cl)cc1Cl (centres undefined)	157 °C
Cn1c(COc2ccc(CC3SC(=O)NC3=O)cc2)nc2ccc(Oc3ccccn3)cc21 (centres undefined)	200 to 210 °C

SMILES	melting point
O=C(c1ccccc1)C(c1cccc2ccccc12)P(=O)(O)O (centres undefined)	184 to 187 °C
CCCN1C(=O)N2C[C@@H](Cc3ccccc3)N=C2c2[nH]c(COCc3ccccc3)nc21	130 to 132 °C
CC(=O)C1CCC2=C(C1)C(=O)c1cc3ccccc3cc1C2=O (centres undefined)	189 to 192 °C
Cn1c(CON2C(=O)c3ccccc3C2=O)ncc(OCc2ccccc2)c1=O	170 °C
O=c1[nH]c(-c2ccccc2Br)nc2c1CCCC2	193 °C
O=C(N[C@H]1CC[C@H](CCN2CCN(c3nccc4c3OCC4)CC2)CC1)C(F)(F)F	198 °C
COc1ccc(N2Cc3cnc(Nc4ccc(F)cc4)nc3N([C@@H](C)CO)C2=O)c(F)c1	173 to 177 °C
CCOC(=O)c1cc2c(C=O)ccc(OCc3ccccc3)c2[nH]1	131 to 132 °C
COCCC(=O)N[C@H]1CC[C@H](CCN2CCC(c3cccc4c3CCO4)CC2)CC1	182 °C
COc1c(C(C)(C)C)cc(C(C)=O)c(O)c1Br	69 to 71 °C
CCCCc1nc2cncc(C)c2[nH]1	111 to 124 °C
O=C(NCc1ccc(Cl)cc1)c1cn2c3c(cc(CN4CCOCC4)cc3c1=O)N=C(NCc1ccccc1)C2	235 to 240 °C
N=C(N)NCCCOc1ccc2c(c1)N(Cc1ccccc1)C(=O)C(CC(=O)O)C2 (centres undefined)	172 to 173 °C
O=C(O)Cc1c(-c2cccs2)nn(-c2ccccc2)c1-c1cccs1	216 to 218 °C
CCN(C(=O)N1CCN(c2cc(C)cc(C)c2)CC1)c1nc2ccccc2nc1OC	145 to 147 °C
CCCCn1c(=O)n(OCc2ccccc2)c(=O)c2cc(F)c(Cl)nc21	147 to 148 °C
O=C(O)c1ccc(-c2cc3cccnc3c(-c3cccc4nonc34)n2)cc1	> 300 °C
CC1(C)CN(Cc2cc(F)ccc2F)c2cc(-c3ccc(C(=O)N4CCC[C@H]4CN4CCCC4)cc3)cnc2N1	74 to 77 °C
CC(C)(C)NCc1cc(Br)cc(Br)c1O	173 to 175 °C
COc1ccc(S(=O)(=O)Nc2cc(C)c(S(=O)(=O)C[N+](=O)[O-])c(C)c2)cc1	141 to 142 °C
Cc1cc(NS(=O)(=O)c2ccccc2)cc(C)c1SC[N+](=O)[O-]	146 to 148 °C
O=C(c1nc2ccc(O)cc2[nH]1)N1CCC(=Cc2ccc(F)cc2)CC1	105 to 106 °C
Fc1cc(-n2cc(CNC(=S)c3ccccn3)nn2)ccc1N1CCSCC1	158 to 160 °C
COC(=O)c1ccc(-c2ccc3nnn(Cc4cc5cccnc5cc4F)c3n2)cc1F	213 to 215 °C
